In patent publication US20190016689A1, “NOVEL FLUORINATED QUINAZOLINE DERIVATIVES AS EGFR INHIBITORS” (TRILLIUM THERAPEUTICS INC., priority 2016, published 2019):
Read-outs that look alike come from different tables or passages of the source.

Columns and labels:
[1] = test system: HOP-62; test: NCI screening panel (SRB); assay type: cell-based; conditions: Homo sapiens, HOP-62 (NSCLC), 48 h; for CC50: read-out: LC50 (the source's name)
[2] = test system: HOP-92; test: NCI screening panel (SRB); assay type: cell-based; conditions: Homo sapiens, HOP-92 (NSCLC), 48 h; for CC50: read-out: LC50 (the source's name)
[3] = test system: NCI-H226; test: NCI screening panel (SRB); assay type: cell-based; conditions: Homo sapiens, NCI-H226 (NSCLC), 48 h; for CC50: read-out: LC50 (the source's name)
[4] = test system: HCT-116; test: NCI screening panel (SRB); assay type: cell-based; conditions: Homo sapiens, HCT-116 (Colon), 48 h; for CC50: read-out: LC50 (the source's name)
[5] = test system: KM12; test: NCI screening panel (SRB); assay type: cell-based; conditions: Homo sapiens, KM12 (Colon), 48 h; for CC50: read-out: LC50 (the source's name)
[6] = test system: SF-268; test: NCI screening panel (SRB); assay type: cell-based; conditions: Homo sapiens, SF-268 (CNS), 48 h; for CC50: read-out: LC50 (the source's name)
[7] = test system: SNB-19; test: NCI screening panel (SRB); assay type: cell-based; conditions: Homo sapiens, SNB-19 (CNS), 48 h; for CC50: read-out: LC50 (the source's name)
[8] = test system: LOXIMVI; test: NCI screening panel (SRB); assay type: cell-based; conditions: Homo sapiens, LOX IMVI, LOXIMVI (Melanoma), 48 h; for CC50: read-out: LC50 (the source's name)
[9] = test system: UACC-257; test: NCI screening panel (SRB); assay type: cell-based; conditions: Homo sapiens, UACC-257 (Melanoma), 48 h; for CC50: read-out: LC50 (the source's name)
[10] = test system: NCI/ADR-RES; test: NCI screening panel (SRB); assay type: cell-based; conditions: Homo sapiens, NCI/ADR-RES (Ovarian), 48 h; for CC50: read-out: LC50 (the source's name)
[11] = test system: SK-OV-3; test: NCI screening panel (SRB); assay type: cell-based; conditions: Homo sapiens, SK-OV-3 (Ovarian), 48 h; for CC50: read-out: LC50 (the source's name)
[12] = test system: RXF393; test: NCI screening panel (SRB); assay type: cell-based; conditions: Homo sapiens, RXF 393, RXF393 (Renal), 48 h; for CC50: read-out: LC50 (the source's name)
[13] = test system: UO-31; test: NCI screening panel (SRB); assay type: cell-based; conditions: Homo sapiens, UO-31 (Renal), 48 h; for CC50: read-out: LC50 (the source's name)
[14] = Microsomal stability; assay type: in vitro ADME; conditions: Human liver microsomes with NADPH; for Remaining Percentage (%) after 60 min: 1 μM
Experimental: Working stocks were initially diluted to a concentration of 40.0 μM in 0.1 M potassium phosphate buffer before addition to the reaction vials. Pooled mouse (CD-1, male) or human (50 donors) liver microsomes were utilized at a final concentration of 0.5 mg/ml. […] Reactions were carried out at 37° C. in a shaker, and the final concentration of DMSO was kept constant at 0.01%. The final volume for each reaction was 100 μL, which includes the addition of an NADPH-Regeneration solution (NRS) mix. This NRS mix is comprised of glucose 6-phosphate dehydrogenase (0.4 U/mL), NADP+(1.3 mM), MgCl2 (3.3 mM), and glucose 6-phosphate (3.3 mM) in assay mixtures. […] Samples were then centrifuged at 4,000 rpm for 10 minutes to remove debris and precipitated protein. Approximately 150 μL of supernatant was subsequently transferred to a new 96 well microplate for LC/MS analysis.
Narrow-window mass extraction LC/MS analysis was performed for all samples using a Waters Xevo quadrupole time-of-flight (QTof) mass spectrometer and an ACQUITY UPLC system, to determine relative peak areas of parent compound.

[15] = Plasma and brain exposure in male CD-1 mice (Brain PK); assay type: in vivo; conditions: CD-1, mouse, brain; for AUC(0-t): read-out: AUC0-tlast; for half-life: read-out: Apparent t1/2 (converted); for MRT last: read-out: MRT0-tlast
Experimental: Animals: Male CD-1 mice (20-25 g) from Charles River Labs will be acclimatized for a minimum of 5 days prior to dosing. Body weights will be recorded on the day of dosing. Food restriction: Animals dosed p.o. will be deprived of food overnight and fed ˜2 h following dosing. Clinical observations: Animals will be observed at the time of dosing and each sample collection. Any abnormalities will be documented. Dosing: Formulations will be administered i.v. via the tail vein and p.o. by gavage with disposable feeding needles. Sample collection: Terminal blood samples will be collected under O2/CO2 anesthesia by cardiac puncture and then the brain and lungs will be excised blotted and weighed. Sample processing/storage: All blood samples will be transferred into K2EDTA tubes and centrifuged (6,800 rpm for 5 min at 4° C.) to obtain plasma. All samples will be stored frozen at −80° C. until bioanalysis. Sample retention: Plasma, brain and lung samples will be analyzed and any remaining samples will be stored frozen at −80° C. until the study is completed.

[16] = biological target: EGFR (G719C) (Homo sapiens, UniProt P00533, G719C); test: Kinase assays, selectivity panel (qPCR); conditions: read-out: % Control @ 300 nM
[17] = biological target: EGFR (L858R) (Homo sapiens, UniProt P00533, L858R); test: Kinase assays, selectivity panel (qPCR); conditions: read-out: % Control @ 300 nM
[18] = biological target: EGFR (S752-I759del) (Homo sapiens, UniProt P00533, DEL752-759); test: Kinase assays, selectivity panel (qPCR); conditions: read-out: % Control @ 300 nM
Chain of EGFR (S752-I759del) (P00533 with tags, fused parts or gaps DEL752-759): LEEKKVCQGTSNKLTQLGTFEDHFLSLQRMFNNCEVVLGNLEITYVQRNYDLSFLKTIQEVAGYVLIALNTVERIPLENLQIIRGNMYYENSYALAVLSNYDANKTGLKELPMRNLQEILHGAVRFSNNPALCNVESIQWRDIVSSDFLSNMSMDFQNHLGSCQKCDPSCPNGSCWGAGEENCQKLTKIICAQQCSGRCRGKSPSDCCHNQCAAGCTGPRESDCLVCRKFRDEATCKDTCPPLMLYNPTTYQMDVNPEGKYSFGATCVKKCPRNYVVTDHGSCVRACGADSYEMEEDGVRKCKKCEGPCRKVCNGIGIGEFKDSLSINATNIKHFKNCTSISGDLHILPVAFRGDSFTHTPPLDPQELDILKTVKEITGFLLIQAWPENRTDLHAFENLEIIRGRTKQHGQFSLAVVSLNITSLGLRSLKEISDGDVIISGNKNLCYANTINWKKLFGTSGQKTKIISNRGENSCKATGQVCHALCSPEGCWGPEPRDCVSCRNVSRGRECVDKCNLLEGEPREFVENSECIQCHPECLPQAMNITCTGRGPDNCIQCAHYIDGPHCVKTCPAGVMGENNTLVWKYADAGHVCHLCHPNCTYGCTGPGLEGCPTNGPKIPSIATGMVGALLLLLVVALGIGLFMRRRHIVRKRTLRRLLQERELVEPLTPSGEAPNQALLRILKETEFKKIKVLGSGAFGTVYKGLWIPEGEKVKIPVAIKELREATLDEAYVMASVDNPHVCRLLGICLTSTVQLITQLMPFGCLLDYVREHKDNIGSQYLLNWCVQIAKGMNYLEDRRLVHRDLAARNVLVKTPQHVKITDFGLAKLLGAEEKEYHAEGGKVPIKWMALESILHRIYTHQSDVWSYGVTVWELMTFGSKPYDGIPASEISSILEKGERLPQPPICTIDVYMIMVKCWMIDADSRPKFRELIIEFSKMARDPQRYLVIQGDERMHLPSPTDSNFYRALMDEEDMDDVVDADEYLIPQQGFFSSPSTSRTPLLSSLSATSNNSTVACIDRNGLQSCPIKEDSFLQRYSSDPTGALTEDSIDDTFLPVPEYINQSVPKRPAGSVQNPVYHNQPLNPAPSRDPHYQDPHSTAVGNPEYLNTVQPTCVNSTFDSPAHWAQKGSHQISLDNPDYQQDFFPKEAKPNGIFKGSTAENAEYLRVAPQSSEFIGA

Chain of EGFR (G719C) (P00533 25-1210 G719C): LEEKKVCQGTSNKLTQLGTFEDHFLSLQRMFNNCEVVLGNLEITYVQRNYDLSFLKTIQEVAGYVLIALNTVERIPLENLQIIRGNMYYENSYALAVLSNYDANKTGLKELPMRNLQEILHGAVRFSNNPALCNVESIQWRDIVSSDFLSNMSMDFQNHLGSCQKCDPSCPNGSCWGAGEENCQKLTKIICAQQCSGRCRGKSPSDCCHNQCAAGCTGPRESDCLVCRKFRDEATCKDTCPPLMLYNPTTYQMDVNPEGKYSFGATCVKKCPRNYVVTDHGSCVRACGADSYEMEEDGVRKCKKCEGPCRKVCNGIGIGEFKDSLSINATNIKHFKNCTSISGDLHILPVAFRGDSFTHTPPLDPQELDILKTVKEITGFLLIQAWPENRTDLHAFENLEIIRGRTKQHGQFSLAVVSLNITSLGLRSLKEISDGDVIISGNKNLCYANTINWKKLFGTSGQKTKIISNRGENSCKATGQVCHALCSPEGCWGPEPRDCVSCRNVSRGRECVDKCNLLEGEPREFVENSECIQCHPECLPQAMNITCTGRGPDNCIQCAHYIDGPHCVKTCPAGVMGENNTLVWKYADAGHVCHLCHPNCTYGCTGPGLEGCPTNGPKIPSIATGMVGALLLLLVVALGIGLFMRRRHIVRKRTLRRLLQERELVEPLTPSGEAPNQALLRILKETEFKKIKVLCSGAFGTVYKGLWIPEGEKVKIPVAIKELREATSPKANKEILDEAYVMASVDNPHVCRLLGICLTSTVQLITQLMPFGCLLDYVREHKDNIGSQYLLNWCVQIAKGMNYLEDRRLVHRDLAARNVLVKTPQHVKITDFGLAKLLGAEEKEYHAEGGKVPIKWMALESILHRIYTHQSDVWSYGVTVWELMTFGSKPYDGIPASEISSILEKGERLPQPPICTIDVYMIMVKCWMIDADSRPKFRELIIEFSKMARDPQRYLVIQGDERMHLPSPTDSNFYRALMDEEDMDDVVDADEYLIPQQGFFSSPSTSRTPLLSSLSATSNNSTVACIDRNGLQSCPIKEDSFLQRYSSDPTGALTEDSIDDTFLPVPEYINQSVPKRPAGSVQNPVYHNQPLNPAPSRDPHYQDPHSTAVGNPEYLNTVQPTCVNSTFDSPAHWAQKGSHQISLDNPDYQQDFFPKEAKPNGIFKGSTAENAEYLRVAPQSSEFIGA
Chain of EGFR (L858R) (P00533 25-1210 L858R): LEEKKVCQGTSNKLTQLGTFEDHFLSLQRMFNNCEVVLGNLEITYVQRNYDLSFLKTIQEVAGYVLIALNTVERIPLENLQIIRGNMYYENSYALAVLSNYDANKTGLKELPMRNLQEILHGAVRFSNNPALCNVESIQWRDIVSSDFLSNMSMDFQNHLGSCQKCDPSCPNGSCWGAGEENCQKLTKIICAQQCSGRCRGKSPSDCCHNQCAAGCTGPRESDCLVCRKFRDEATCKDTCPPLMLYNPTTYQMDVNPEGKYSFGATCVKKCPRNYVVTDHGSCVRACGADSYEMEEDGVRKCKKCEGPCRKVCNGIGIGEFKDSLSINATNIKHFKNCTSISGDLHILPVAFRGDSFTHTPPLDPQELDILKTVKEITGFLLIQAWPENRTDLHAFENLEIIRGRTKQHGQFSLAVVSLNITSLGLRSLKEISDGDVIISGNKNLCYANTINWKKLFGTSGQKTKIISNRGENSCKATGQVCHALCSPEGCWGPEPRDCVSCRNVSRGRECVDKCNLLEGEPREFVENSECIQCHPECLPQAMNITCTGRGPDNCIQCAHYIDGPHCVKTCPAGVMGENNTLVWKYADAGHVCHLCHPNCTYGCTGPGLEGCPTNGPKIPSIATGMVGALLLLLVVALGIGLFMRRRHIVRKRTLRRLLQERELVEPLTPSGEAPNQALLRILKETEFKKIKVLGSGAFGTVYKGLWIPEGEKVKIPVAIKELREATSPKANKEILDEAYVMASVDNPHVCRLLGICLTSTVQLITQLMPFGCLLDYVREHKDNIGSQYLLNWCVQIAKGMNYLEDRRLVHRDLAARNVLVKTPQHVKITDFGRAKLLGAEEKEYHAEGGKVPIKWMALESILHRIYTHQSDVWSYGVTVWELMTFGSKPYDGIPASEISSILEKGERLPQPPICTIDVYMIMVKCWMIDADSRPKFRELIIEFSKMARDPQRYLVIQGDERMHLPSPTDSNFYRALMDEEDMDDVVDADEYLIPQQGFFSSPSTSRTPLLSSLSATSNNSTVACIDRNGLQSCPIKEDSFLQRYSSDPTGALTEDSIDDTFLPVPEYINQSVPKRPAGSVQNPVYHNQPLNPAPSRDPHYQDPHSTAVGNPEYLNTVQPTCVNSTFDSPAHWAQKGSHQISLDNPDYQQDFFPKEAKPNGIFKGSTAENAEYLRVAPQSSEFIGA

`CN(C)C/C=C/C(=O)Nc1cc2c(Nc3ccc(F)c(Cl)c3F)ncnc2cc1OCCOC(F)F.O=C(O)/C=C\C(=O)O.O=C(O)/C=C\C(=O)O` [Example I-9-MA, (E)-N-[4-(3-chloro-2,4-difluoro-anilino)-7-[2-(difluoromethoxy)ethoxy]quinazolin-6-yl]-4-(dimethylamino)but-2-enamide di-maleic acid salt] gave a GI50 [1] of 1350 nM, a CC50 [1] of 41500 nM and a GI50 [2] of 185 nM. It also gave a CC50 [2] of 31200 nM, a GI50 [3] of 1710 nM and a CC50 [3] of 9700 nM. It also gave a GI50 [4] of 483 nM, a CC50 [4] of 22400 nM and a GI50 [5] of 1880 nM. The CC50 [5] was 29200 nM, the GI50 [6] was 747 nM and the CC50 [6] was 27300 nM. For the same compound, the GI50 [7] was 1600 nM, the CC50 [7] was 36600 nM and the GI50 [8] was 944 nM. For the same compound, the CC50 [8] was 4910 nM, the GI50 [9] was 2180 nM and the CC50 [9] was 34000 nM. The GI50 [10] was 839 nM, the CC50 [10] was greater than 100000 nM and the GI50 [11] was less than 10 nM. The CC50 [11] was 27700 nM, the GI50 [12] was 351 nM and the CC50 [12] was 15100 nM. The GI50 [13] was less than 10 nM, the CC50 [13] was 14600 nM and the half-life at 1 μM [14] was 0.986 h. The microsomal CLint at 1 μM [14] was 23.4 µL/min/mg, the “Remaining Percentage (%) after 60 min” value [14] was 47.73% and the AUC(0-inf) ([15]; iv, i.v. 1 mg/kg free base) was 420 ng·h/mL. The Cmax ([15]; iv, i.v. 1 mg/kg free base) was 171 ng/mL, the Tmax ([15]; iv, i.v. 1 mg/kg free base) was 0.0833 h and the AUC(0-t) ([15]; iv, i.v. 1 mg/kg free base) was 397 ng·h/mL. For the same compound, the half-life ([15]; iv, i.v. 1 mg/kg free base) was 7.11 h, the MRT last ([15]; iv, i.v. 1 mg/kg free base) was 6.6 h and the AUC(0-inf) ([15]; po, p.o. 25 mg/kg free base) was 5960 ng·h/mL. For the same compound, the Cmax ([15]; po, p.o. 25 mg/kg free base) was 651 ng/mL, the Tmax ([15]; po, p.o. 25 mg/kg free base) was 2 h and the AUC(0-t) ([15]; po, p.o. 25 mg/kg free base) was 5900 ng·h/mL. The half-life ([15]; po, p.o. 25 mg/kg free base) was 3.44 h, the MRT last ([15]; po, p.o. 25 mg/kg free base) was 6.78 h and the remaining activity at 0.3 µM [16] was 1.1%. The remaining activity at 0.3 µM [17] was 0% and the remaining activity at 0.3 µM [18] was 0.5%.
In the case of `O=C(/C=C/CN1CCCCC1)Nc1cc2c(Nc3ccc(F)c(Cl)c3F)ncnc2cc1OCCOC(F)F.O=C(O)/C=C\C(=O)O.O=C(O)/C=C\C(=O)O` [Example I-10-MA, (E)-N-[4-(3-chloro-2,4-difluoro-anilino)-7-[2-(difluoromethoxy)ethoxy]quinazolin-6-yl]-4-(1-piperidyl)but-2-enamide di-maleic acid salt], the GI50 [1] is reported as 1620 nM, the CC50 [1] is reported as 39500 nM and the GI50 [2] is reported as 151 nM. It also gave a CC50 [2] of 21100 nM, a GI50 [3] of 1770 nM and a CC50 [3] greater than 100000 nM. For the same compound, the GI50 [4] was 1540 nM, the CC50 [4] was 88900 nM and the GI50 [5] was 2670 nM. The CC50 [5] was 34300 nM, the GI50 [6] was 1250 nM and the CC50 [6] was 41700 nM. It also gave a GI50 [7] of 2160 nM, a CC50 [7] of 68800 nM and a GI50 [8] of 1340 nM. For the same compound, the CC50 [8] was 5490 nM, the GI50 [9] was 1740 nM and the CC50 [9] was 24100 nM. The GI50 [10] was 1000 nM, the CC50 [10] was greater than 100000 nM and the GI50 [11] was 40.5 nM. For the same compound, the CC50 [11] was 36000 nM, the GI50 [12] was 959 nM and the CC50 [12] was 33300 nM. For the same compound, the GI50 [13] was 13.4 nM, the CC50 [13] was 39100 nM and the half-life at 1 μM [14] was 1.45 h. For the same compound, the microsomal CLint at 1 μM [14] was 15.9 µL/min/mg, the “Remaining Percentage (%) after 60 min” value [14] was 60.64% and the AUC(0-inf) ([15]; iv, i.v. 1 mg/kg free base) was 1730 ng·h/mL. It also gave a Cmax ([15]; iv, i.v. 1 mg/kg free base) of 1110 ng/mL, a Tmax ([15]; iv, i.v. 1 mg/kg free base) of 0.25 h and an AUC(0-t) ([15]; iv, i.v. 1 mg/kg free base) of 1710 ng·h/mL. The half-life ([15]; iv, i.v. 1 mg/kg free base) was 4.75 h, the MRT last ([15]; iv, i.v. 1 mg/kg free base) was 2.99 h and the AUC(0-inf) ([15]; po, p.o. 25 mg/kg free base) was 14000 ng·h/mL. For the same compound, the Cmax ([15]; po, p.o. 25 mg/kg free base) was 3830 ng/mL, the Tmax ([15]; po, p.o. 25 mg/kg free base) was 2 h and the AUC(0-t) ([15]; po, p.o. 25 mg/kg free base) was 13900 ng·h/mL. For the same compound, the half-life ([15]; po, p.o. 25 mg/kg free base) was 3.25 h, the MRT last ([15]; po, p.o. 25 mg/kg free base) was 3.68 h and the remaining activity at 0.3 µM [16] was 0%. For the same compound, the remaining activity at 0.3 µM [17] was 0.4% and the remaining activity at 0.3 µM [18] was 0%.
For `CN(C)C/C=C/C(=O)Nc1cc2c(Nc3ccc(F)c(Cl)c3)ncnc2cc1O[C@H]1CCOC1` [Afatinib, reference compound], the Cmax ([15]; iv, i.v. 1 mg/kg free base) was 12.7 ng/mL, the Tmax ([15]; iv, i.v. 1 mg/kg free base) was 0.0833 h and the AUC(0-t) ([15]; iv, i.v. 1 mg/kg free base) was 44.5 ng·h/mL. It also gave a half-life ([15]; iv, i.v. 1 mg/kg free base) of 4.97 h, an MRT last ([15]; iv, i.v. 1 mg/kg free base) of 7.01 h and an AUC(0-inf) ([15]; po, p.o. 25 mg/kg free base) of 704 ng·h/mL. For the same compound, the Cmax ([15]; po, p.o. 25 mg/kg free base) was 83.3 ng/mL, the Tmax ([15]; po, p.o. 25 mg/kg free base) was 4 h and the AUC(0-t) ([15]; po, p.o. 25 mg/kg free base) was 688 ng·h/mL. The half-life ([15]; po, p.o. 25 mg/kg free base) was 3.69 h and the MRT last ([15]; po, p.o. 25 mg/kg free base) was 8.64 h.
